Test results as given in patent US6486161B1, “Use of rifamycin derivative for treating mastitis in a domestic animal” (priority 2000, dated 2002).
In brackets after ≈: the same amount, converted by molar mass. Where two headings read alike, the source gives them in different places.

Tests used:
[1] = test system: Staphylococcus aureus 9203; assay: S. aureus intracellular killing assay in bovine PMN; assay type: cell-based; conditions: overnight incubation (18 to 21 hours)
Procedure: The therapeutic effect of the rifamycin derivative (1) was determined by S. aureus intracellular killing assay in bovine polymorphonuclear neutrophil (PMN).
The procedure for PMN isolation was as described in Carlton et al. (Proc. Soc. Exp. Biol. Med. 142: 853-858 (1973)).
Bovine blood collected by venipuncture in 50-ml syringes containing 1.5% EDTA (pH 6.8) was centrifuged at 1,000×g for 25 min. The plasma-buffer layer and the top few millileters were discarded. The packed erythrocyte fraction was pooled in 0.8% NaCl-phosphate buffer (pH 6.8) and 10 ml was placed in 20 ml of sterile water for 40 seconds to lyse the erythrocytes. Immediately thereafter, 10 ml of a 2.7% NaCl-phosphate buffer solution was added to restore isotonicity. The leukocytes, consisting of ≦84% PMNs, were washed twice and suspended in HBSS. PMNs were adjusted to a final concentration of 10^7 cells per ml.
The intracellular killing assay was carried out as described in Sanchez et al. (Antimicrobial Agents and Chemotherapy 29(4): 634-638 (1986)).
Bovine blood PMNs and bacteria (1:1) were suspended in HBSS containing 10% heterologous bovine serum. The mixture was incubated for 90 minutes at 37° C. in Erlenmeyer flasks with rotational mixing at 110 rpm. Lysostaphin (5 μg/ml) was added to the mixture for the final 15 minutes of incubation. The infected PMNs were washed 3 times by low-speed centrifugation and suspended in HBSS. Cells were pipetted (1 ml) into each well of a six-well cluster dish (Bellco Glass, Inc., Vineland, N.J.) at 5×10^6 PMNs per well. PMNs were allowed to attach and form a monolayer for 10 minutes at 37° C. The supernatant fluid with unattached cells was discarded, and 2 ml of fresh HBSS was added to each well. The rifamycin derivatives to be tested were then added to the wells (one six-well plate per drug). These derivatives were dissolved in dimethylsulfoxide, and then diluted in HBSS to final solvent concentrations of 0.01% (vol/vol) or less.
After overnight incubation (18 to 21 hours) at 37° C. with 1% CO2, lysostaphin (5 μg/ml) was added to each well for 15 min (at 37° C.) to kill extracellular bacteria. The monolayers were washed with HBSS, and the cells were lysed by addition of 1 ml of water to each well. The number of viable bacteria was then estimated by plate counts on brain heart infusion agar. […] The results are shown in Table 2, wherein R is the alkyl group in the rifamycin derivative (1).

Oral toxicity in mice = assay type: in vivo; conditions: orally administered to mice, 1,000 mg/kg
[2] = test system: Staphylococcus aureus 9203; assay: MIC against the strain of the intracellular killing assay; assay type: cell-based
[3] = test system: Staphylococcus aureus 6097; assay: Dose titration in the mouse mastitis model (S. aureus-induced murine mastitis); assay type: in vivo; conditions: mice, read 6 days after infection; for ED (mg/kg/d) Mastitis: 50% of mice without mastitis; for ED (mg/kg/d) Culture: 50% of mice with no bacteria cultured from gland
S. aureus ATCC 29213 [4] = assay: MIC, microbroth dilution, strain ATCC 29213; assay type: cell-based, Staphylococcus aureus
Procedure: (§1) Four S. aureus strains were used: S. aureus 30857, a rifampin-resistant isolate: S. aureus 6097, a strain used in the mouse mastitis test and originally from a case of gangrenous bovine mastitis; S. aureus B83-1, derived from the Newbould 305 strain; and S. aureus ATCC 29213, the in vitro control stain recommended by NCCLS.
(§2) All S. aureus strains were maintained on 3 mm glass beads immersed in trypticase soy broth (BBL Microbiology Systems, Cockeysville, Md.) with 10% glycerol and held at −70° C. until revived. Prior to testing, the strains were subcultured on tryptose blood agar base (Difco, Detroit, Mich.) supplemented with 5% sheep blood for 24 hours at 35° C.
(§3) These compounds were dissolved in 95% ethanol, a solution which was then diluted to 10% ethanol with sterile distilled water. Further dilutions were conducted in water.
(§4) MIC (Minimum Inhibitory Concentration) determinations were performed using the microbroth dilution method. (National Committee for Clinical Laboratory Standards, 1990 Approved Standard […]. Methods for dilution antimicrobial susceptibility tests for bacteria that grow aerobically, 3rd edition. National Committee for Clinical Laboratory Standards, Villanova, Pa.) The results are shown in Table 3, wherein R is the alkyl group R in the rifamycin derivative (1).

[5] = test system: S. aureus 30857, a rifampin-resistant isolate; assay: MIC, microbroth dilution, strain 30857; assay type: cell-based, Staphylococcus aureus; conditions: strain 30857
Procedure: as §1, §2, §3, §4

S. aureus 6097 [6] = assay: Mutation frequency for resistance, strain 6097; assay type: cell-based, Staphylococcus aureus
Procedure: (§5) The mutation frequency for development of resistance to the rifamycin derivative (1) as compared to rifampin was determined with selected Staphylococcus aureus strains.
as §1, §2, §3
(§6) The mutation frequency for development of resistance to the compounds tested was determined by the following method. A single colony of each strain was removed from the surface of a blood agar plate with a cotton swab, suspended in 5 ml of Mueller-Hinton broth (BBL), and streaked on the entire surface of five Mueller-Hinton agar plates. The plates were incubated overnight under aerobic conditions at 35° C., growth was removed from the agar using a sterile cotton swab, and the bacteria were suspended in 10 ml physiological saline. This bacterial suspension was the inoculum for the mutation frequency determinations. Standard plate counts were performed on the inoculum by performing serial dilutions and plating a 0.1 ml aliquot on the surface of ten Mueller-Hinton agar plates at each concentration. The plates were incubated for 18-24 hours at 35° C. under aerobic conditions and colony counts performed. Mean bacterial counts were calculated for the inoculum with each strain.
(§7) A 0.1 ml aliquot of the inoculum was then used to inoculate the entire surface of ten plates each containing 1, 10, and 100 μg/ml of the test antimicrobial agents. The plates were incubated for 18-24 hours at 35° C. under aerobic conditions and colony counts performed. Mean bacterial counts were calculated for each antimicrobial concentration and the mutation frequency calculated by dividing the number of colonies which grew on the drug containing media by the inoculum size.

S. aureus B83-1 [7] = assay: Mutation frequency for resistance, strain B83-1; assay type: cell-based, Staphylococcus aureus
Procedure: as §5, §1, §2, §3, §6, §7

[8] = test system: S. aureus 30857, a rifampin-resistant isolate; assay type: cell-based, Staphylococcus aureus; conditions: strain 30857
Procedure: as §5, §1, §2, §3, §6, §7

S. aureus 6097 [9] = assay: MIC, microbroth dilution, strain 6097; assay type: cell-based, Staphylococcus aureus
Procedure: as §1, §2, §3, §4

S. aureus ATCC 29213 [10] = assay: Mutation frequency for resistance, strain ATCC 29213; assay type: cell-based, Staphylococcus aureus
Procedure: as §5, §1, §2, §3, §6, §7

S. aureus B83-1 [11] = assay: MIC, microbroth dilution, strain B83-1; assay type: cell-based, Staphylococcus aureus
Procedure: as §1, §2, §3, §4

[12] = route IMM (intramammary), 1 hour after infection

SMILES | % reduction ([1]; 100X MIC) [%] | CFU/ml ISD (×10^3) ([1]; 100X MIC) | toxicity (Oral toxicity in mice) | MIC [2] | ED (mg/kg/d) Mastitis [3, 12] [mg/kg/day] | ED (mg/kg/d) Culture ([3]; route IMM (intramammary)) [mg/kg/day] | ED (mg/kg/d) Culture ([3]; route SC (subcutaneous)) [mg/kg/day] | ED (mg/kg/d) Mastitis ([3]; route SC (subcutaneous)) [mg/kg/day] | % reduction ([1]; 1X MIC) [%] | CFU/ml ISD (×10^3) ([1]; 1X MIC) | also measured
Cc1onc(-c2ccccc2Cl)c1C(=O)N[C@@H]1C(=O)N2[C@@H]1SC(C)(C)[C@@H]2C(=O)O [Cloxacillin, reference compound] | 0.0 | 5.9 ± 1.9 CFU/ml (×10^3) |  |  |  |  |  |  |  |  | 
COC1/C=C/OC2(C)Oc3c(C)c(O)c4c(=O)c(c5oc6cc(N7CCN(C8CC8)CC7)cc(O)c6nc-5c4c3C2=O)NC(=O)/C(C)=C\C=C\C(C)C(O)C(C)C(O)C(C)C(OC(C)=O)C1C (stereo not shown) [R = cyclopropyl] |  |  | did not show any toxicity |  |  |  |  |  |  |  | 
CCN1CCN(c2cc(O)c3nc4c5c6c7c(C)c(O)c5c(=O)c(c-4oc3c2)NC(=O)/C(C)=C\C=C\C(C)C(O)C(C)C(O)C(C)C(OC(C)=O)C(C)C(OC)/C=C/OC(C)(O7)C6=O)CC1 (stereo not shown) [R = ethyl] | 100 | 0.0 CFU/ml (×10^3) | did not show any toxicity | ≦0.03 μg/ml | 0.3 | 0.4 | 1.5 | 0.4 | 97.0 | 0.09 ± 0.04 CFU/ml (×10^3) | 
COC1/C=C/OC2(C)Oc3c(C)c(O)c4c(=O)c(c5oc6cc(N7CCN(CC(C)C)CC7)cc(O)c6nc-5c4c3C2=O)NC(=O)/C(C)=C\C=C\C(C)C(O)C(C)C(O)C(C)C(OC(C)=O)C1C (stereo not shown) [R = isobutyl] | 100 | 0.0 CFU/ml (×10^3) | did not show any toxicity | ≦0.03 μg/ml | 0.3 | 0.3 | 3.5 | 3.5 | 95.0 | 0.15 ± 0.06 CFU/ml (×10^3) | MIC (S. aureus ATCC 29213 [4]): 1.9 ng/mL (≈ 2.02 nM); MIC [5]: >4000 ng/mL; Mutation frequency (S. aureus 6097 [6]; 1 μg/ml): 9.5 × 10^−8; Mutation frequency (S. aureus 6097 [6]; 10 μg/ml): 8.9 × 10^−8; Mutation frequency (S. aureus 6097 [6]; 100 μg/ml): 9.9 × 10^−8; Mutation frequency (S. aureus B83-1 [7]; 1 μg/ml): 5.0 × 10^−8; Mutation frequency (S. aureus B83-1 [7]; 10 μg/ml): 5.2 × 10^−8; Mutation frequency (S. aureus B83-1 [7]; 100 μg/ml): 4.7 × 10^−8; Mutation frequency ([8]; 1 μg/ml): >1.0 × 10^−7; Mutation frequency ([8]; 10 μg/ml): >1.0 × 10^−7; Mutation frequency ([8]; 100 μg/ml): >1.0 × 10^−7; MIC (S. aureus 6097 [9]): 0.98 ng/mL (≈ 1.04 nM); Mutation frequency (S. aureus ATCC 29213 [10]; 1 μg/ml): 3.0 × 10^−8; Mutation frequency (S. aureus ATCC 29213 [10]; 10 μg/ml): 3.7 × 10^−8; Mutation frequency (S. aureus ATCC 29213 [10]; 100 μg/ml): 3.5 × 10^−8; MIC (S. aureus B83-1 [11]): 1.9 ng/mL (≈ 2.02 nM)
COC1/C=C/OC2(C)Oc3c(C)c(O)c4c(=O)c(c5oc6cc(N7CCN(C(C)C)CC7)cc(O)c6nc-5c4c3C2=O)NC(=O)/C(C)=C\C=C\C(C)C(O)C(C)C(O)C(C)C(OC(C)=O)C1C (stereo not shown) [R = isopropyl] | 100 | 0.0 CFU/ml (×10^3) | did not show any toxicity | ≦0.03 μg/ml | 0.2 | 0.2 | 0.6 | 0.4 | 100 | 0.0 CFU/ml (×10^3) | 
